Biological target: T1, Kinesin^CaaX (Trypanosoma brucei, UniProt Q388Z9)
T1 construct: gene Tb10.389.1270; truncated N-terminal 340-residue motor domain plus coil (full length 832 residues), N-terminal 6xHis, E. coli BL21 soluble lysate, about 44 kDa
T1 sequence (Q388Z9 1-340): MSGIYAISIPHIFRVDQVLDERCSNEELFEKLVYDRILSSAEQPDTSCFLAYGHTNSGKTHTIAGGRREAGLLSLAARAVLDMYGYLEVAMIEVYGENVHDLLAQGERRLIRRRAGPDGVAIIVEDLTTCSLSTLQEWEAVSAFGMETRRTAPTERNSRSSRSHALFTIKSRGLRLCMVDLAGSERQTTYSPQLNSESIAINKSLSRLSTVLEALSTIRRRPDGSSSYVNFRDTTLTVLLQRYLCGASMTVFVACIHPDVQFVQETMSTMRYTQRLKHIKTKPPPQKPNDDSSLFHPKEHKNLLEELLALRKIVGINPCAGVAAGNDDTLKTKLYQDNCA
Assay: microtubule gliding motility assay
Format: biochemical
Conditions: 1 mM MgATP, BRB80 pH 6.9, taxol-stabilised bovine microtubules; E. coli lysate with recombinant motor domain

Nc1ncnc2c1ncn2[C@@H]1O[C@H](COP(=O)(O)OP(=O)(O)OP(=O)(O)O)[C@@H](O)[C@H]1O [ATP]
microtubule gliding motility assay: both ATP and the Kinesin^CaaX motor domain were required to move microtubules
